Measured values as given in patent US5739338A, “N-aryl substituted tetrahydroquinolines having retinoid agonist, retinoid antagonist or retinoid inverse agonist type biological activity” (Allergan, priority 1996, dated 1998).

Legend:
[1] = test system: RARγ-VP-16 chimeric receptor; experiment: Retinoid inverse agonist assay: inhibition of basal luciferase activity in CV-1 cells cotransfected with RARγ-VP-16, ER-RXRα and ERE-tk-Luc; assay type: cell-based; settings: RARγ-VP-16, ER-RXRα chimeric receptor, ERE-tk-Luc reporter, read-out: IC50 (inhibition of basal luciferase activity, inverse agonism)
Excerpt: The activity of retinoid inverse agonists can be tested by the procedure of Klein et al. J. Biol. Chem. 271, 22692-22696 (1996) which is expressly incorporated herein by reference.
In this assay, retinoid inverse agonists are able to repress the basal activity of a RARγ-VP-16 chimeric receptor where the constituitively active domain of the herpes simplex virus (HSV) VP-16 is fused to the N-terminus of RARγ. CV-1 cells are cotransfected with RARγ-VP-16, an ER-RXRα chimeric receptor and an ERE-tk-Luc chimeric reporter gene to produce a basal level of luciferase activity, as shown by Nagpal et al. EMBO J. 12, 2349-2360 […] expressly incorporated herein by reference. Retinoid inverse agonists are able to inhibit the basal luciferase activity in these cells in a dose dependent manner and IC50 s measured.

RARβ = target: T1, RARβ (Homo sapiens, UniProt P10826); experiment: Ligand Binding Assay, RARβ
T1 sequence (P10826 1-448 isoform P10826-2): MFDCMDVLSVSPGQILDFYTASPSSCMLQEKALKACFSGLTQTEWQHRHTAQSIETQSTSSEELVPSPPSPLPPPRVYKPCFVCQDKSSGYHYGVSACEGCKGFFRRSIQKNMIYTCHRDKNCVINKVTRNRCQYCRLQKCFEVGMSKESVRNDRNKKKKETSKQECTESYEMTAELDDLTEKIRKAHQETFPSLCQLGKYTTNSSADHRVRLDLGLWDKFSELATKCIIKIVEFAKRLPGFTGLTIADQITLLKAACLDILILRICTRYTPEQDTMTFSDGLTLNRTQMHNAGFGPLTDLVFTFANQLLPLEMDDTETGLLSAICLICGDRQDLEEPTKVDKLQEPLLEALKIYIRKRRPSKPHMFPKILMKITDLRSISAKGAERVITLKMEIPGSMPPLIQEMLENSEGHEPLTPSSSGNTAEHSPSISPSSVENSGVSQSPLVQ
Excerpt: (§1) Other assays described below, measure the ability of the compounds of the present invention to bind to, and/or activate various retinoid receptor subtypes. When in these assays a compound binds to a given receptor subtype and activates the transcription of a reporter gene through that subtype, then the compound is considered an agonist of that receptor subtype. […] In the below descried assays the ability of the compounds to bind to RARα, RARβ, RARγ, RXRα, RXRβ and RXRγ receptors, and the ability or inability of the compounds to activate transcription of a reporter gene through these receptor subtypes can be tested.
(§2) A holoreceptor transactivation assay and a ligand binding assay which measure the antagonist/agonist like activity of the compounds of the invention, or their ability to bind to the several retinoid receptor subtypes, respectively, are described in published PCT Application No. WO WO93/11755 (particularly on pages 30-33 and 37-41) published on Jun. 24, 1993, the specification of which is also incorporated herein by reference. A description of the holoreceptor transactivation assay is also provided below.
(§3) CV1 cells (5,000 cells/well) were transfected with an RAR reporter plasmid MTV-TREp-LUC (50 ng) along with one of the RAR expression vectors (10 ng) in an automated 96-well format by the calcium phosphate procedure of Heyman et al. Cell 68, 397-406, (1992). For RXRα and RXRγ transactivation assays, an RXR-responsive reporter plasmid CRBPII-tk-LUC (50 ng) along with the appropriate RXR expression vectors (10 ng) was used substantially as described by Heyman et al. above, and Allegretto et al. J. Biol. Chem. 268, 26625-26633. For RXRβ transactivation assays, an RXR-responsive reporter plasmid CPRE-tk-LUC ([…]) along with RXRβ expression vector ([…]) was used as described in above. These reporters contain DRI elements from human CRBPII and certain DRI elements from promoter, respectively. (see Mangelsdorf et al. The Retinoids: Biology, Chemistry and Medicine, pp 319-349, Raven Press Ltd., New York and Heyman et al., cited above) (1, 8). A β-galactosidase (50 ng) expression vector was used as an internal control in the transfections to normalize for variations in transfection efficiency. The cells were transfected in triplicate for 6 hours, followed by incubation with retinoids for 36 hours, and the extracts were assayed for luciferase and β-galactosidase activities. The detailed experimental procedure for holoreceptor transactivations has been described in Heyman et al. above, and Allegretto et al. cited above. The results obtained in this assay are expressed in EC50 numbers, as they are also in the chimeric receptor transactivation assay. The Heyman et al. Cell 68, 397-406, Allegretto et al. J. Biol. Chem. 268, 26625-26633, and Mangelsdorf et al. The Retinoids: Biology, Chemistry and Medicine, pp 319-349, Raven Press Ltd., New York, are expressly incorporated herein by reference. The results of ligand binding assay are expressed in Kd numbers. (See Cheng et al. Biochemical Pharmacology Vol. 22 pp 3099-3108, expressly incorporated herein by reference.)

RARα = target: T2, RARα (Homo sapiens, UniProt P10276); experiment: Ligand Binding Assay, RARα
T2 sequence (P10276 1-462): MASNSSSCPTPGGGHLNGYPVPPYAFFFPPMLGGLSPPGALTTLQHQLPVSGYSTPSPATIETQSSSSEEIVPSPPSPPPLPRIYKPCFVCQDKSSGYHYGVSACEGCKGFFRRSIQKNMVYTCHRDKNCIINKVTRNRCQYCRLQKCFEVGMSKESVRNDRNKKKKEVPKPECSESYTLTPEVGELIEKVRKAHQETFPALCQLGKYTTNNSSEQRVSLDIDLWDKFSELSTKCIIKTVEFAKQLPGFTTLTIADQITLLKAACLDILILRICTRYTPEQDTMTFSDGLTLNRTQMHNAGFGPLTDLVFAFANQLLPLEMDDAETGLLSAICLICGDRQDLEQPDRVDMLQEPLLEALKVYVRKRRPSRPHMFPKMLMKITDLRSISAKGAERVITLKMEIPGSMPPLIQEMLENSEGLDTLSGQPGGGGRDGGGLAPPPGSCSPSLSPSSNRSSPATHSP
Excerpt: as §1, §2, §3

RARγ = target: T3, RARγ (Homo sapiens, UniProt P13631); experiment: Ligand Binding Assay, RARγ
T3 sequence (P13631 1-454): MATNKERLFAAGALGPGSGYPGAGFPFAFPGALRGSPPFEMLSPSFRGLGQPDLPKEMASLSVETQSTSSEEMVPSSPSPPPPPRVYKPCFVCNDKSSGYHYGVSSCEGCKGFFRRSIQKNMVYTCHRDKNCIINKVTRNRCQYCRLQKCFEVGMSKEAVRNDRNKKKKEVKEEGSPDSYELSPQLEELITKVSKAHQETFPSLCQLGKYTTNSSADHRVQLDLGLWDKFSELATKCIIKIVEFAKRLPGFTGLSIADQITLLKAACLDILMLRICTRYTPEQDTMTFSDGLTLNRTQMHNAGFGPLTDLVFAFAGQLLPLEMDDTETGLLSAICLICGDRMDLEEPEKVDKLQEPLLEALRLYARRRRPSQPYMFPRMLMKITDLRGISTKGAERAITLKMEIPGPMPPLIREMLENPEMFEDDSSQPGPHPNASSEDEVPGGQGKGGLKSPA
Excerpt: as §1, §2, §3

IC50 [1]	Kd (RARβ)	Kd (RARα)	Kd (RARγ)	SMILES
1 nM	3 nM	13 nM	9 nM	Cc1ccc(N2CCC(C)(C)c3ccc(C#Cc4ccc(C(=O)O)cc4)cc32)cc1 [Compound 5, 4-(2-(4,4-Dimethyl-1,2,3,4-tetrahydro-N-(4-methylphenyl)quinolin-7-yl)ethynyl)benzoic Acid]
	84 nM	101 nM	530 nM	Cc1ccc(N2CCC(C)(C)c3ccc(C#Cc4ccc(C(=O)O)c(F)c4)cc32)cc1 [Compound 12, 4-(2-(4,4-Dimethyl-1,2,3,4-tetrahydro-N-(4-methylphenyl)quinolin-7-yl)ethynyl)-2-fluorobenzoic Acid]
	17 nM	59 nM	32 nM	Cc1ccc(N2C(=O)CC(C)(C)c3ccc(C#Cc4ccc(C(=O)O)cc4)cc32)cc1 [Compound 22, 4-(2-(4,4-Dimethyl-3,4-dihydro-N-(4-methylphenyl)-2(1H)-quinolinon-7-yl)ethynyl)benzoic Acid]

The remaining lines, values behind:

SMILES	IC50 [1]	Kd (RARβ)	Kd (RARα)	Kd (RARγ)
CC1(C)CCN(c2ccccc2)c2cc(C#Cc3ccc(C(=O)O)cc3)ccc21 [Compound 10, 4-(2-(4,4-Dimethyl-1,2,3,4-tetrahydro-N-phenylquinolin-7-yl)ethynyl)benzoicAcid]		18 nM	147 nM	52 nM
Cc1ccc(N2CCC(C)(C)c3ccc(/C=C/c4ccc(C(=O)O)cc4)cc32)cc1 [Compound 14, (E)-4-(2-(4,4-dimethyl-1,2,3,4-tetrahydro-N-(4-methylphenyl)quinolin-7-yl)ethenyl)benzoic acid]		5 nM	11 nM	15 nM
Cc1ccc(N2CCC(C)(C)c3ccc(C(=O)Nc4ccc(C(=O)O)cc4)cc32)cc1 [Compound 25, (4,4-dimethyl-1,2,3,4-tetrahydro-N-(4-methylphenyl)quinolin-7-carboxyl)-4-carboxyanilide]		> 1000 nM	27 nM	> 1000 nM
